{"source": "patent US6692939B2", "about": "“Nucleotide sequences encoding mammalian calcium activated chloride channel-adhesion molecules” (Cornell Research Foundation, Inc., priority 1997, dated 2004)", "molecules": {"B1": {"name": "wtLu-ECAM-1: wild type Lu-ECAM-1 purified with mAb 6D3 from extracts of bovine aortic endothelial cells (protein)", "chain": "MVLCLNVILFLTLHLLPGMKSSMVNLINNGYDGIVIAINPSVPEDEKLIENIKEMVTEASTYLFHATKRRVYFRNVSILIPMTWKSKSEYFIPKQESYDQADVIVANPYLKYGDDPYTLQYGRCGEKGKYIHFTPNFLLTNNFHIYGSRGRVFVHEWAHLRWGIFDEYNVDQPFYISRKNTIEATRCSTHITGINVVFKKCPGGSCITSLCRRDSQTGLYEAKCTFLPKKSQTAKESIMFMPSLHSVTEFCTEKTHNTEAPNLQNKMCNGKSTWDVIMNSVDFQNTSPMTEMNPPTHPTFSLLKSKQRVVCLVLDKSGSMSAEDRLFQMNQAAELYLIQVIEKGSLVGMVTFDSVAEIQNHLTRITDDNVYQKITAKLPQVANGGTSICRGLKAGFQAIIHSDQSTSGSEIILLTDGEDNEINSCFEDVKRSGAIIHTIALGPSAAKELETKSNMTGGYRFFANKDITGLTNAFSRISSRSGSITQQAIQLESKALKITGRKRVNGTVPVDSTVGNDTFFVVTWTIQKPEIVLQDPKGKKYKTSDFKEDKLNIRSARLQIPGIAETGTWTYSLLNNHASSQMLTVTVTTRARSPTIPPVIATAHMSQHTAHYPSPMIVYAQVSQGFLPVLGISVIAIIETEDGHQVTLELWDNGAGRDTVKNDGIYSRYFTDYYGNGRYSLKVHAQARNNTARLNLRQPQNKVLYVPGYVENGKIILNPPRPEVKDDLAKAKIEDFSRLTSGGSFTVSGAPPPGNHPSVFPPSKITDLEAKFKEDYIQLSWTAPGNVLDKGKANSYIIRISKSFMDRQEDFDNATLVNTSNLIPKEAGSKENFEFKPEHFRVENGTKFYISVQAINEANLISEVSHIVQAIKFIPLPEDSVHDLGTKISEITLAILGLPMIFSVF", "modifications": "OTHER INFORMATION: Lu-ECAM-1 precursor from bovine endothelial cells", "notes": "wild type Lu-ECAM-1 purified with mAb 6D3 from extracts of bovine aortic endothelial cells"}}, "key": {"[1]": {"test_system": "mCLCA1", "test": "whole cell recording in mCLCA1-transfected HEK293 cells", "assay_type": "cell-based, murine", "conditions": "for effect on Ca2+ sensitive chloride current under whole cell conditions: mCLCA1-transfected HEK293 cells", "from_the_text": "(§1) In another embodiment of the invention, mCLCA1 cDNA was cut from the pBluescript vector (Stratagene) with SacI and PvuI, blunt ended with Klenow Polymerase and inserted into the tetracycline sensitive mammalian expression vector (pTet-splice, Life Technologies, Inc.) at the EcoRV site. HEK293 cells were cotransfected with mCLCAl cDNA cloned into the pTet-splice along with a vector expressing a tetracycline activator (pTet-tTak) using standard transfection techniques well known to those skilled in the art and as described above (Lipofectamine, Life Technologies, Inc.). Cells were cotransfected with a reporter vector as described above. In another illustration of this embodiment, human CLCA1, HEK293 cells were transfected with either pcDNA 3.1 containing the CLCA1 insert and a reporter vector (enhanced green fluorescent protein, EGFP, CLONTECH) or the reporter vector alone. Transfection can be carried out by standard techniques known to those skilled in the art including CaPO4 precipitation or Lipofectamine (Life Technologies).\n(§2) This embodiment illustrates that the full length cDNAs of the present invention encode calcium sensitive chloride channels. The various cDNAs were used for transfection of a cell line. For electrophysiological studies, cells were also cotransfected with a reporter vector (pEGFP, CLONTECH). Cotransfection with a reporter vector allows for easy identification of transfected cells by visualization under a fluorescent microscope. Whole cell recording was then carried out in the transfected cells to determine the presence of calcium sensitive chloride channels.\n(§3) Transfected cells were used for electrophysiological recording. Cells were superfused with a bath solution containing 112 mM NMDG-Cl, 30 mM sucrose, 1 mM EGTA, 0.366 mM CaCl2, 2 mM MgCl2, 5 mM N-2-hydroxy-xyethanylpiperazine-N-2-ethanesulfonic acid. Whole cell channel activity was recorded in transfected cells by using borosilicate glass electrodes (tip resistance 4-9 M ohms) filled with the bath solution. Recordings were carried out in the presence or absence of a […] channel inhibitors (DIDS, niflumic acid and DTT). To determine the effect of ionomycin on channel activity, electrodes filled with standard bath solution containing either 5 mM ATP and 1 mM EGTA in the presence of low intracellular calcium. After gigaohm seal formation, cells were clamped at +20 mV. Whole cell currents were recorded at room temperature, sampled at 5-10 kHz and filtered at 1-2 kHz. The I-V relationship was determined using 300 ms voltage steps from a holding potential of +20 mV to potentials from −100 to +100 mV at 10 mV intervals. To normalize measured membrane currents to membrane currents to membrane capacitance, the capacitive current transient recorded in response to a 10 mV hyperpolarizing pulse was integrated and divided by the given voltage to give total membrane capacitance (Cm) for each cell."}, "[2]": {"test_system": "hCLCA1", "test": "whole cell recording in hCLCA1-transfected HEK293 cells", "assay_type": "cell-based, human", "conditions": "for whole cell current after addition of inhibitor: hCLCA1-transfected cells, activated current 11.06 pA/pF", "from_the_text": "as §1, §2\nas §3, with “To determine the effect of ionomycin on channel activity, electrodes filled with standard bath solution containing either 5 mM ATP and 1 mM EGTA in the presence of low intracellular calcium. After gigaohm seal formation, cells were clamped at +20 mV.” left out"}, "[3]": {"test_system": "hCLCA2", "test": "whole cell recording in hCLCA2-transfected HEK293 cells", "assay_type": "cell-based, human", "conditions": "for sensitivity of the current to inhibitor: DIDS 300 uM, DTT 2 mM, niflumic acid 100 uM, tamoxifen 10 uM", "procedure": "For human CLCA2, HEK293 cells were transfected using Lipofectamine using manufacturer's instructions. For example, 5 ul lipid and 0.5 ul of CLCA2 were cloned into pcDNA 3.1 per 35 mm well in a 2-3 hour incubation. For expression studies, the 2,832 bp CLCA2 ORF was PCR amplified from human trachea poly-A^+RNA (Clontech) following reverse transcription with Superscript RNase H reverse transcriptase (Life Technologies) and random hexamer priming. PCR was performed with Pwo DNA Polymerase (Boehringer; initial denaturation at 94° C. for 3 min, 35 cycles of 94° for 50 s, 58° C. for 30s, and 72° C. for 2 min with a time increment of 3 s per cycle for each extension step (72° C.), followed by a final extension step of 72° C. for 8 min). Primer sequences were (upstream primer: SEQ ID NO:41, downstream primer: SEQ ID NO:42 with NotI-linkers underlined). PCR products were gel purified, incubated with NotI, and cloned into the expression vector pcDNA3.1 (Invitrogen). Four different PCR products were sequenced to control for potential PCR-induced sequence errors. Cells were simultaneously cotransfected with a reporter vector as described above. Chloride channel conductance activity was recorded after allowing the cells to recover for 24 hours.\nas §2, §3"}, "[4]": {"test_system": "non-transfected or control-transfected cells", "test": "whole cell recording in non-transfected or control-transfected cells", "assay_type": "cell-based", "conditions": "ionomycin 2 uM", "procedure": "as §2\nTransfected cells were used for electrophysiological recording. […] Whole cell channel activity was recorded in transfected cells by using borosilicate glass electrodes (tip resistance 4-9 M ohms) filled with the bath solution. […] Whole cell currents were recorded at room temperature, sampled at 5-10 kHz and filtered at 1-2 kHz. The I-V relationship was determined using 300 ms voltage steps from a holding potential of +20 mV to potentials from −100 to +100 mV at 10 mV intervals. To normalize measured membrane currents to membrane currents to membrane capacitance, the capacitive current transient recorded in response to a 10 mV hyperpolarizing pulse was integrated and divided by the given voltage to give total membrane capacitance (Cm) for each cell."}, "[5]": {"test_system": "lung-metastatic B16-Fl0 melanoma cells", "test": "tumor cell adhesion assay on Lu-ECAM-1 coated wells", "assay_type": "cell-based", "conditions": "wells coated with 100 μg/ml protein; 10 minutes at 37° C.", "procedure": "Recombinant (r) Lu-ECAM-1 and wild type (wt) Lu-ECAM-1 were compared in their adhesion ability to lung-metastatic B16-Fl0 melanoma cells. Using anti-Lu-ECAM-1 mAb 6D3, wtLu-ECAM-1 was purified from extracts of bovine aortic endothelial cells, and rLu-ECAM-1 was purified from extracts of transfected HEK293 cells. The tumor cell adhesion assay was performed as described previously (Zhu et al., 1992, supra). Briefly, 100 μg/ml in phosphate buffered saline of either wtLu-ECAM-1 or rLu-ECAM-1 was used to coat wells of 96 plates overnight at 4° C. Wells were then washed with tissue culture medium, and each well is seeded with a suspension of tissue culture medium and 2×10^4 tumor cells which had been radio-labelled. After being spun onto the coated wells at 15 g for 1 minute, and incubated for 10 minutes at 37° C., nonadherent tumor cells were spun off at 150 g for 5 minutes. Adherent tumor cells were then dissolved in 1% SDS and counted in a liquid scintillation counter. Tumor cell attachment is recorded as the percent cells bound of the total cells seeded. Inhibition of tumor cell adhesion is determined by first incubating the Lu-ECAM-1 coated wells with mAb 6D3 (10 μg/ml) for 1 hour at room temperature before the tumor cells are added."}, "[6]": {"test_system": "B1GF10 melanoma cells", "conditions": "mouse, in vivo; cited from earlier work"}}}
{"molecule": "O=S(=O)(O)c1cc(N=C=S)ccc1C=Cc1ccc(N=C=S)cc1S(=O)(=O)O", "note": "[DIDS]", "values": [{"measurement": "whole cell current after perfusion of inhibitor", "setting": "[1]; 300 uM DIDS, 2 mM Ca2+, basal 12.01±6.31 pA/pF", "value": "1.84 ±0.96", "unit": "pA/pF"}, {"measurement": "effect on Ca2+ sensitive chloride current under whole cell conditions", "setting": "[1]", "value": "inhibited"}, {"measurement": "whole cell current after addition of inhibitor", "setting": "[2]", "value": 1.63, "unit": "pA/pF"}, {"measurement": "sensitivity of the current to inhibitor", "setting": "[3]", "value": "sensitive"}]}
{"molecule": "C[C@H](CCC(=O)O)C[C@H](C)C[C@H](C)C(=O)/C=C(\\O)[C@H](C)C[C@H](C)C/C=C/[C@@H](C)[C@@H](O)[C@@H](C)[C@@H](O)C[C@@H]1CC[C@@](C)([C@H]2CC[C@@](C)([C@@H](C)O)O2)O1", "note": "[ionomycin]", "values": [{"measurement": "whole cell current at +100 mV with ionomycin", "setting": "[1]; ionomycin 2 uM, low intracellular free Ca2+, basal 2.05±1.09 pA/pF", "value": "10.23±3.46", "unit": "pA/pF"}, {"measurement": "maximally activated current at +100 mV after external perfusion of ionomycin", "setting": "[2]; ionomycin 2 uM, increase from 0.65 pA/pF", "value": 11.06, "unit": "pA/pF"}, {"measurement": "activation of the current by ionomycin", "setting": "[3]; ionomycin 4 uM in bath, pipet about 25 nM Ca2+, 2 mM Ca2+ in the bath", "value": "activated the current"}, {"measurement": "effect of ionomycin on current in non-transfected or control-transfected cells", "setting": "[4]", "value": "No significant effect"}]}
{"molecule": "CC/C(=C(\\c1ccccc1)c1ccc(OCCN(C)C)cc1)c1ccccc1", "note": "[tamoxifen]", "values": [{"measurement": "sensitivity of the current to inhibitor", "setting": "[3]", "value": "sensitive"}]}
{"molecule": "O[C@@H](CS)[C@@H](O)CS", "note": "[DTT]", "values": [{"measurement": "effect on Ca2+ sensitive chloride current under whole cell conditions", "setting": "[1]", "value": "inhibited"}, {"measurement": "whole cell current after addition of inhibitor", "setting": "[2]", "value": 1.67, "unit": "pA/pF"}, {"measurement": "sensitivity of the current to inhibitor", "setting": "[3]", "value": "sensitive"}]}
{"molecule": "O=C(O)c1cccnc1Nc1cccc(C(F)(F)F)c1", "note": "[niflumic acid]", "values": [{"measurement": "effect on Ca2+ sensitive chloride current under whole cell conditions", "setting": "[1]", "value": "inhibited"}, {"measurement": "whole cell current after addition of inhibitor", "setting": "[2]", "value": 2.07, "unit": "pA/pF"}, {"measurement": "sensitivity of the current to inhibitor", "setting": "[3]", "value": "sensitive"}]}
{"molecule": "B1", "values": [{"measurement": "adhesion of lung-metastatic tumor cells supported (percent cells bound of the total cells seeded)", "setting": "[5]", "value": 43, "unit": "%"}, {"measurement": "prevention or inhibition of metastatic colonization of the lungs by B1GF10 cells", "setting": "[6]", "value": "inhibition of metastatic colonization"}]}
